Test results as given in patent US20050256208A1, “Pharmaceutical composition containing bakuchiol for treating woman breast cancer” (Sinphar Pharmaceutical Co., Ltd., priority 2004, published 2005).
≈ marks a conversion by molar mass, not a printed value.

Experiments:
[1] = test system: human breast cancer cell line T47D (estrogen receptor positive); assay: In vitro cytotoxicity assay (CCK-8), T47D; format: cell-based; conditions: T47D cells, 48 hours incubation, read-out: 50% inhibition of cell growth concentration (IC50)
Source text: (§1) Materials: DMEM (medium), RPMI (medium), L-glutamine, penicillin, streptomycin and FBS (fetal bovine serum) were obtained from Gibco (NY, USA). Culture plasticware was purchased from Corning (MA, USA). […] All other chemicals used were of reagent grade and were purchased from Sigma or E. Merck (Germany).
(§2) Cell lines and cell cultures: The human breast cancer cell lines T47D and MDA-MB231 were obtained from American Type Culture Collection (ATCC). Of both cancer cells, T47D is estrogen receptor positive, and MDA-MB231 is estrogen receptor negative. Cells were cultured at 37° C. in RPMI medium containing 10% charcoal-dextran stripped fetal bovine serum for T47D cells and in DMEM medium containing 10% charcoal-dextran stripped fetal bovine serum for MDA-MB231 cells with 5% CO2. The cell proliferation was determined by counting the viable cells with trypan blue exclusion.
(§3) Cytotoxicity assay: Dispense 198 μl of cell suspension (20,000 cells for T47D per well and 10,000 cell for MDA-MB231 per well) in a 96-well plate and pre-incubate the plate for 24 hours in an incubator at 37° C. with humidified 5% CO2. […] After plate was incubated for 48 hours in the incubator, media were aspirated of and new media (100 μl) were added and incubated for 1 more hour. […] Measure the absorbance at 450 nm using a ELISA reader.

[2] = test system: human breast cancer cell line MDA-MB231 (estrogen receptor negative); assay: In vitro cytotoxicity assay (CCK-8), MDA-MB231; format: cell-based; conditions: MDA-MB-231, MDA-MB231 cells, 48 hours incubation, read-out: 50% inhibition of cell growth concentration (IC50)
Source text: as §1, §2, §3

[3] = test system: ovariectomized female Wistar rats (osteoporosis caused by estrogen deficiency); assay: Ovariectomized rat osteoporosis model, bone histomorphometry of proximal tibia; format: in vivo; conditions: two months, mean value; for Erosion surface (ES/BS, %) of proximal tibia: OVX group 5.8%, Sham 4.7%; for Bone volume % (BV/TV) of proximal tibia head trabecular bone: OVX group 12.50%, Sham 29.50%
Source text: The purpose of this example is to show the potency of bakuchiol in treating osteoporosis, wherein ovary of a female rat is removed to stimulate osteoporosis caused by estrogen deficiency. The female Wistar rats of 16 weeks old (unless specified in the other experiment description) were obtained from the stock reared by the Animal breeding center, National Scientific Council in Taipei. These rats were grouped by weights matched in order to distribute the physiological response variation from rats evenly into each group. These rats were grouping as follows: • Baseline group fed with no drug added food (n=8) • Sham operation group fed with no drug added food (Sham) (n=10) • Ovariectomy operation group fed with no drug added food (OVX) (n=8) • Ovariectomy operation group fed with Drug A (5 mg/kg) added food (OVX+A) (n=9) • Ovariectomy operation group fed with Drug B (15 mg/kg) added food (OVX+B) (n=9) Ovariectomy (removal of ovaries) operation: Ovariectomy was induced using a protocol similar to that described by Wronski et al (Wronski et al, Endocrinology, 123(2), 681-86 (1988)). During the experiments, the rats were housed in hanging grid cages in groups of two at 21° C. with a 12 hours dark cycle. Food (Rat-mouse diet III, adequate in 1% of calcium content and 1.2% of phosphate content, Purina, USA) was administered by paired feeding between the experimental and control groups. Pair-feeding was carried out by calculating the average amount of food intake in the Sham group. So give the same amount of food to the OVX, OVX+A (5 mg/kg), OVX+B (15 mg/kg) group animals the following day. These animals were fed with a period of two months except for the baseline group which were killed on the very day of doing ovariectomy or sham operation. Rats of OVX+A and OVX+B groups were fed with the usual food chuck but added certain amount of compound A and B in it respectively. Water was given ad libitum to all rats. The test drug was weighted according to dose of 5 mg/kg and 15 mg/kg, and added into the ususal food chuck powder and mixed with 10% starch paste. After fully mixed, these chuck powder were made into mass manually and dried by air flow oven. The food with added drug to rats was performed by single blind method. These labeling and bone histomorphometry assessment were done based on standard procedure in bone research (Lin et al, Calcif. Tissue Int., 67, 373-377 (2000)). Specimen were prestained with Villanueva bone stain, then […] and embedded in London resin. Undecalcified sections of 7 μm thick were cut using Jung-K microtome (Leica Ltd, USA) and treated with Villanueva stain for observation under light microscopy. Seven μm thick unstained sections were prepared for fluorescent microscopy and assessed with program Osteomeasure (3.0 version, Atlanta, USA). […]

[4] = test system: ovariectomized female Wistar rats (osteoporosis caused by estrogen deficiency); assay: Ovariectomized rat osteoporosis model, apparent bone density of tibia; format: in vivo; conditions: two months, mean value, OVX group 1.549, Sham 1.589
Source text: The purpose of this example is to show the potency of bakuchiol in treating osteoporosis, wherein ovary of a female rat is removed to stimulate osteoporosis caused by estrogen deficiency.
The female Wistar rats of 16 weeks old (unless specified in the other experiment description) were obtained from the stock reared by the Animal breeding center, National Scientific Council in Taipei. These rats were grouped by weights matched in order to distribute the physiological response variation from rats evenly into each group. These rats were grouping as follows: • Baseline group fed with no drug added food (n=8) • Sham operation group fed with no drug added food (Sham) (n=10) • Ovariectomy operation group fed with no drug added food (OVX) (n=8) • Ovariectomy operation group fed with Drug A (5 mg/kg) added food (OVX+A) (n=9) • Ovariectomy operation group fed with Drug B (15 mg/kg) added food (OVX+B) (n=9)
Ovariectomy (removal of ovaries) operation: Ovariectomy was induced using a protocol similar to that described by Wronski et al (Wronski et al, Endocrinology, 123(2), 681-86 (1988)). […]
The whole tibia and femur were stripped off attached muscles and ligaments after sacrifice. […] The weight of bone measured in the air was marked as W-air. […] The apparent bone density was calculated as [W-air/(W-air minus W-water)] […]

[5] = test system: five different human cancer cells: lung (A549), ovary (SK-OV-3), skin (SK-MEL-2), central nervous system (XF498), large intestine (HCT); conditions: five human cancer cells A549, SK-OV-3, SK-MEL-2, XF498, HCT; Arch. Pharm. Res. 15, 356-359 (1992); cited from earlier work
[6] = OVX + B group, 15 mg/kg in food

Compound: C=C[C@@](C)(/C=C/c1ccc(O)cc1)CCC=C(C)C [Bakuchiol, bakuchiol]
- IC50 [1]: 5 µg/mL (≈ 19.5 µM)
- IC50 [2]: 0.62 µg/mL (≈ 2.42 µM)
- Erosion surface (ES/BS, %) of proximal tibia ([3]; OVX + A group, 5 mg/kg in food): 5.0%
- Bone volume % (BV/TV) of proximal tibia head trabecular bone ([3]; OVX + A group, 5 mg/kg in food): 19.80%
- Erosion surface (ES/BS, %) of proximal tibia [3, 6]: 4.8%
- Bone volume % (BV/TV) of proximal tibia head trabecular bone [3, 6]: 20.11%
- Bone apparent density of tibia ([4]; OVX + A group, 5 mg/kg in food): 1.582 gm/cm^3
- Bone apparent density of tibia [4, 6]: 1.587 gm/cm^3
- average inhibitory concentration (IC50) [5]: 10˜15 μg/cc
